In patent US20230340127A1, “METHODS AND COMPOSITIONS FOR CANCER TREATMENT BY INHIBITION OF FBXO44” (Sanford Burnham Prebys Medical Discovery Institute, priority 2022, published 2023):

How the values were obtained:
[1] = test system: MDA-MB-231-luc-derived mammary tumors; test: MDA-MB-231-luc orthotopic mammary tumors in immunodeficient mice treated with F5446; type: in vivo, mouse
Experimental: Animal studies: mice were maintained under pathogen free conditions in 14 hrs light/10 hrs dark cycle with ad libitum access to food and water. All animal handling and procedures used were performed in accordance with protocols approved by the Institutional Animal Care and Use Committee of SBP or UCSD. For intracardiac injections, 10^5 MDA-MB-231-luc cells transduced with lentivirus expressing non-targeting or FBXO44 shRNAs were resuspended in 100 μL DPBS and injected into the left ventricle of 6-week old female athymic nude mice (Envigo no. 069) anesthetized with isoflurane. Metastatic seeding was monitored weekly by intraperitoneal (i.p.) injection of 100 μL of 30 mg/mL D-Luciferin (Xenogen no.)CR-1001) 10 min prior to imaging using the IVIS Spectrum Xenogen Imaging System (Caliper Life Sciences). Images were analyzed using Living Image 3.0 software (Caliper Life Sciences). For ex vivo imaging of tissues, mice were injected with D-Luciferin prior to euthanasia, tissues harvested and placed in 24-well tissue culture plates containing 1 mL of 0.3 mg/mL D-Luciferin and imaged. Organs/tissues were fixed in 10% formalin and subjected to hematoxylin and eosin staining. For orthotopic injections of NSG mice, 3×10^6 MDA-MB-231-luc cells were suspended in 100 μL of PBS and injected into the mammary fat pads of 4- to 6-week-old female mice. For F5446 drug treatments, mice were randomly divided into 3 groups at day 12. The mice were administered vehicle (10% Cremophor EL in PBS) or F5446 at doses of 10 and 20 mg/kg body weight via i.p. injection on days 12, 14, 17, 19, 21 and 24 post-inoculation of cells. Tumor size was measured every 4-5 days (long diameter and short diameter) with a caliper and tumor volume calculated as 0.5×length×width×width. Mice were imaged weekly to monitor tumor growth and metastasis in vivo using an IVIS Spectrum Xenogen Imaging System (Caliper Life Sciences). All mice were euthanized at day 25 except 3 mice were taken out from each group for tumor IHC staining of γH2AX and cleaved Caspase 3 and quantitative RT-PCR analysis at day 21. […]

[2] = test system: chromatin associated H3K9me3 modifications in MDA-MB-231 cells; test: Immunofluorescence of chromatin associated H3K9me3 after F5446 treatment; type: cell-based, human; conditions: vehicle or F5446 for 48 hrs, IF (FIG. 10E)
Experimental: Immunofluorescence (IF): IF was performed to detect chromatin associated H3K9me3 in siRNA of FBXO44 or control. Briefly, cells were grown on Laminin-coated coverslips (neuVitro no. GG-12-laminin), washed twice with cold PBS, and then fixed with 4% paraformaldehyde for 20 min at 25° C. followed by permeabilization with 0.5% Triton X-100 in PBS for 5 min. Cells were fixed with chilled methanol for 5 min at −20° C. After 3×10 min washes in PBS, cells were incubated in blocking buffer (10 mM Tris-Cl [pH 7.5], 120 mM KCl, 20 mM NaCl, 0.5 mM EDTA, 0.1% Triton X-100, 10% milk, 2% BSA) overnight at 4° C. The relevant primary antibodies diluted in blocking buffer were then added. Specifically, 1:500 dilution for anti-H3K9me3 (Abcam no. ab8898). Cells were washed 3×10 min with KCMT buffer (10 mM Tris-Cl [pH 7.5], 120 mM KCl, 20 mM NaCl, 0.5 mM EDTA, 0.1% Triton X-100) and incubated with Alexa Fluor 488-labeled anti-rabbit (Thermo Fisher Scientific no. A-21441) or Alexa Fluor 594-labeled anti-mouse (Cell Signaling Technologies no. 8890) antibodies at 1:500 dilution for 1 hr at 25° C. After 3×10 min washes with KCMT buffer, cells were stained with DAPI (Thermo Fisher Scientific no. D1306), coverslips mounted with anti-fade mounting medium (Vector Laboratories no. H-1000), and slides examined by fluorescence microscopy (Nikon Inverted TE300) or confocal microscopy (Zeiss LSM 710 NLO). […]

[3] = test system: HMECs and primary astrocytes; test: Viability of normal cells after F5446 treatment; type: cell-based, human; conditions: F5446 for 48 hrs (FIG. 9G)
Experimental: To assess whether this epigenetic regulatory pathway could potentially be targeted for cancer treatment, SUV39H1 and its chemical inhibitor F5446 were used to perform experiments. IF, qRT-PCR, and growth curve experiments were performed as described in previous examples. Human mammary epithelial cells (HMECs) and primary astrocytes were also used in the experiments. HMECs (Lonza, #CC-2551) were cultured in MEGM BulletKit Medium (Lonza, #CC-3150). Primary astrocytes were cultured Astrocyte Medium (ScienCell, #1801) and cells were incubated at 37° C. in 5% CO2. All cells were incubated at 37° C. in 5% CO2. The cell cultures were authenticated by short tandem repeat (STR) analysis.
To establish the potential of a therapeutic index for FBXO44/SUV39H1, the role of FBXO44/SUV39H1 in RE silencing in normal cells was investigated using human mammary epithelial cells (HMECs) or primary astrocytes. HMECs and primary astrocytes were cultured and treated with F5446 as described in example 17. Growth curve, immunoblotting, IF, ChIP experiments were performed as described in previous examples.

Compound: COC(=O)c1cc2c(n1S(=O)(=O)c1ccc(Cl)cc1)C(=O)C(=O)c1[nH]cc(C(=O)OCc3ccccc3)c1-2 [F5446]
- γH2AX and cleaved Caspase 3 in tumors ([1]; IHC of F5446-treated tumors (FIG. 12K)): dose-dependent increase
- mammary tumor growth ([1]; immunocompromised mice, 10 and 20 mg/kg i.p. (FIGS. 12H-12J)): inhibited mammary tumor growth in immunocompromised mice in a dose-dependent manner
- expression of REs, IFN α/β, and ISGs in tumors ([1]; qRT-PCR of F5446-treated tumors (FIG. 12L)): upregulated
- chromatin-associated H3K9me3 [2]: reduced
- HMEC and astrocyte viability [3]: minimally affected
